Measurements as given in PubChem BioAssay AID328 (DTP/NCI, 2004).
“And” between values parts separate entries of the source, which are not always exact repeats. Equal entries are not always repeated. Inconclusive results and toxic doses are left out.

Tested on: BDF1 mice, P388 leukemia ip, median survival T/C
Assay: NCI In Vivo Anticancer Drug Screen. Data for tumor model P388 Leukemia (intraperitoneal) in B6D2F1 (BDF1) mice
Conditions: endpoint: median survival time, higher = longer survival
How it was run: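 Antitumour effect was judged in vivo: survival in drug-treated mice, normalised to that of vehicle-dosed controls, gives the reported T/C.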

[1] = dose: 50.0 mg/kg/injection, schedule: Q01DX009 (ip), vehicle: saline with Tween-80
[2] = dose: 100.0 mg/kg/injection, schedule: Q01DX009 (ip), vehicle: saline with Tween-80
[3] = dose: 200.0 mg/kg/injection, schedule: Q01DX009 (ip), vehicle: saline with Tween-80
[4] = dose: 50.0 mg/kg/injection, schedule: Q01DX009 (ip), vehicle: saline
[5] = dose: 12.5 mg/kg/injection, schedule: Q01DX009 (ip), vehicle: saline with Tween-80
[6] = dose: 25.0 mg/kg/injection, schedule: Q01DX009 (ip), vehicle: saline with Tween-80
[7] = dose: 25.0 mg/kg/injection, schedule: Q04DX003 (ip), vehicle: saline with Tween-80
[8] = dose: 50.0 mg/kg/injection, schedule: Q04DX003 (ip), vehicle: saline with Tween-80
[9] = dose: 200.0 mg/kg/injection, schedule: Q04DX003 (ip), vehicle: saline with Tween-80
[10] = dose: 400.0 mg/kg/injection, schedule: Q04DX003 (ip), vehicle: saline with Tween-80
[11] = dose: 100.0 mg/kg/injection, schedule: Q04DX003 (ip), vehicle: saline with Tween-80

## Cc1ncc(CSc2ccccc2N)c(CO)c1O
[1]
  T/C: 91 % of control
[2]
  T/C: 92 % of control
[3]
  T/C: 94 % of control

## Cc1ccnc(NC2=CC(=O)C(=O)c3ccccc32)c1
[4]
  T/C: 100 % of control
dose: 75.0 mg/kg/injection, schedule: Q01DX009 (ip), vehicle: saline
  T/C: 118 % of control
dose: 112.5 mg/kg/injection, schedule: Q01DX009 (ip), vehicle: saline
  T/C: 118 % of control

## CC(=O)CC(=O)NCCCN1CCCCC1
[5]
  T/C: 92 % of control
[6]
  T/C: 88 % of control
[7]
  T/C: 96 % of control
[8]
  T/C: 88 % of control

## C=C1C(=O)OC2/C=C(\C)CC(O)/C=C(/C)CC(OC(=O)C(O)(CO)C(C)S)C12 (centres undefined)
dose: 100.0 mg/kg/injection, schedule: Q04DX002 (ip), vehicle: Klucel (hydroxypropylcellulose) (HPC)
  T/C: 120 % of control
dose: 200.0 mg/kg/injection, schedule: Q04DX002 (ip), vehicle: Klucel (hydroxypropylcellulose) (HPC)
  T/C: 118 % of control

## CC(C)(C)S[Si](Cl)(SC(C)(C)C)SC(C)(C)C
dose: 100.0 mg/kg/injection, schedule: Q04DX002 (ip), vehicle: saline with Tween-80
  T/C: 119 % of control
dose: 200.0 mg/kg/injection, schedule: Q04DX002 (ip), vehicle: saline with Tween-80
  T/C: 103 % of control
dose: 400.0 mg/kg/injection, schedule: Q04DX002 (ip), vehicle: saline with Tween-80
  T/C: 94 % of control

## O=C(NO)c1ccc([N+](=O)[O-])cc1
dose: 240.0 mg/kg/injection, schedule: Q01DX010 (ip), vehicle: water
  T/C: 92 % of control
dose: 270.0 mg/kg/injection, schedule: Q01DX010 (ip), vehicle: water
  T/C: 90 % of control and 113 % of control
dose: 360.0 mg/kg/injection, schedule: Q01DX010 (ip), vehicle: water
  T/C: 123 % of control

## O=C(O)CN=Cc1ccccc1O.O=C(O)CN=Cc1ccccc1O.[Fe]
dose: 6.25 mg/kg/injection, schedule: Q01DX009 (ip), vehicle: saline with Tween-80
  T/C: 100 % of control
dose: 6.25 mg/kg/injection, schedule: Q01DX009 (ip), vehicle: saline
  T/C: 106 % of control
dose: 6.25 mg/kg/injection, schedule: Q04DX003 (ip), vehicle: saline
  T/C: 100 % of control
[5]
  T/C: 100 % of control
dose: 12.5 mg/kg/injection, schedule: Q01DX009 (ip), vehicle: saline
  T/C: 115 % of control
dose: 12.5 mg/kg/injection, schedule: Q04DX003 (ip), vehicle: saline
  T/C: 100 % of control
[6]
  T/C: 100 % of control and 110 % of control
dose: 25.0 mg/kg/injection, schedule: Q01DX009 (ip), vehicle: saline
  T/C: 90 % of control
[7]
  T/C: 100 % of control
dose: 25.0 mg/kg/injection, schedule: Q04DX003 (ip), vehicle: saline
  T/C: 95 % of control
[1]
  T/C: 100 % of control
[4]
  T/C: 86 % of control
[8]
  T/C: 86 % of control

## CC(CS(=O)(=O)O)NC(CO)(CO)CO (centres undefined)
dose: 100.0 mg/kg/injection, schedule: Q01DX009 (ip), vehicle: saline
  T/C: 87 % of control
dose: 100.0 mg/kg/injection, schedule: Q04DX003 (ip), vehicle: saline
  T/C: 100 % of control
dose: 200.0 mg/kg/injection, schedule: Q04DX003 (ip), vehicle: saline
  T/C: 109 % of control
dose: 400.0 mg/kg/injection, schedule: Q01DX009 (ip), vehicle: saline
  T/C: 100 % of control
dose: 400.0 mg/kg/injection, schedule: Q04DX003 (ip), vehicle: saline
  T/C: 90 % of control

## CCC1CN1P(=O)(Oc1ccc2ccccc2c1)N1CC1CC (centres undefined)
[9]
  T/C: 245 % of control
[10]
  T/C: 86 % of control

## CC1CCCC(NC(=O)N(CCCl)N=O)C1 (centres undefined)
dose: 0.25 mg/kg/injection, schedule: Q04DX003 (ip), vehicle: saline with Tween-80
  T/C: 115 % of control
dose: 0.5 mg/kg/injection, schedule: Q04DX003 (ip), vehicle: saline with Tween-80
  T/C: 100 % of control
dose: 1.0 mg/kg/injection, schedule: Q04DX003 (ip), vehicle: saline with Tween-80
  T/C: 95 % of control
dose: 16.5 mg/kg/injection, schedule: Q04DX003 (ip), vehicle: saline with Tween-80
  T/C: 240 % of control
[7]
  T/C: 259 % of control
dose: 37.5 mg/kg/injection, schedule: Q04DX003 (ip), vehicle: saline with Tween-80
  T/C: 272 % of control
[11]
  T/C: 177 % of control

## COc1ccc(COC(=O)NC(CCS(C)=O)C(=O)O)cc1 (centres undefined)
[1]
  T/C: 91 % of control
[2]
  T/C: 99 % of control
[3]
  T/C: 99 % of control

## CC1=C(C)Cc2c(c(OC(=O)c3ccccc3)cc(Cl)c2OC(=O)c2ccccc2)C1
dose: 12.5 mg/kg/injection, schedule: Q04DX003 (ip), vehicle: saline with Tween-80
  T/C: 94 % of control
[7]
  T/C: 94 % of control
[8]
  T/C: 92 % of control
[11]
  T/C: 90 % of control
[9]
  T/C: 93 % of control
[10]
  T/C: 94 % of control
